Where two headings read alike, the source gives them in different places.

The subject of this assay is T1, TaME (Thermoplasma acidophilum NADP+-malic enzyme).
T1 construct: dimer (from structural model); Asn304 and Thr46* named at active site
The assay can be described thus: NADPH formation, oxidative decarboxylation, Michaelis-Menten. Type of assay: biochemical. The settings on record: NADP+ as cofactor, standard assay conditions in supplement section 1.3.1, read-out: Km(substrate). The source says:
NADPH formation, oxidative decarboxylation, Michaelis-Menten on TaME (Thermoplasma acidophilum NADP+-malic enzyme)

A word on the Km: it is the concentration of substrate that gives half-maximal velocity. On to `O=C(O)C[C@H](O)C(=O)O` [1b, Malate], for which the Km (0.05-1.0 mM malate) is 879 ± 149 µM. As to `O=C(O)C[C@H](C(=O)O)[C@@H](O)C(=O)O` [2b, Isocitrate], the Km (0.03-0.60 mM isocitrate) came out at 23.7 ± 5.2 µM.
